According to patent US8685658B2, “Compositions and methods for the treatment of diseases associated with aberrant cilia assembly and regulation” (Fox Chase Cancer Center, priority 2006, dated 2014):
Substitutions are numbered along the chain they refer to. Numbers in names are those of the source.

Assays:
hTERT-RPE1 cells [1] = test: FACS cell cycle profile after serum stimulation; format: cell-based
hTERT-RPE1 cells [2] = test: serum-induced ciliary disassembly in ciliated hTERT-RPE1 cells; format: cell-based; conditions: compounds added 2 hours prior to induction; tubacin and niltubacin 2 μM, GSK3 inhibitor 2 μM, FTI-277 50 nM
Procedure: hTERT-RPE1 cells were grown in DMEM with 10% fetal bovine serum (FBS). For analysis of ciliary disassembly, cells were plated at 30% confluence in plates containing glass cover slips, and starved for 48 hours (in Opti-MEM or regular DMEM, without added serum) to induce cilia formation, followed by treatments described hereinbelow. For siRNA treatment, cells were initially plated in DMEM/10% FBS in plates containing cover slips, and 12 hours later siRNA transfection was performed in Opti-MEM with Oligofectamine (Invitrogen) according to manufacturer recommendations, and fixed 48 hours after transfection, following treatments indicated in Results. The remaining cells on plate were lysed, then either directly analyzed by Western blot analysis, or used for immunoprecipitation (IP)-kinase reaction to measure AurA activity.
Cells were fixed with 4% paraformaldehyde (10 min) then methanol (5 min), permeabilized with 1% Triton-X100 in PBS, blocked in 1×PBS, 3% BSA, and incubated with antibodies using standard protocols. Primary antibodies included rabbit polyclonal anti-Aurora A and anti-phospho-AuroraA/T288, (Cell Signaling), mouse mAb anti-HEF1 (14A11), polyclonal anti-γ-tubulin (Sigma), anti-α-tubulin mAb (Sigma), anti-acetylated α-tubulin mAb (clone 6-11B-1, Sigma, and clone K(Ac)40 Biomol), anti-IFT88 and anti-IFT20 (gifts of G. Pazour), mouse anti-glutamylated tubulin (Sigma), and anti-HDAC6 (Upstate). Secondary antibodies labeled with Alexa-488, Alexa-568, and Alexa-633, and TOTO-3 dye to stain DNA, were from Molecular Probes/Invitrogen. DNA was co-stained in some experiments by propidium iodine (Sigma) or Draq5 (Alexis), Confocal microscopy was performed using a Radiance 2000 laser scanning confocal microscope ((Carl Zeiss, Thornwood, N.Y.) coupled to a Nikon Eclipse E800 upright microscope (Nikon). Statistical analysis of data by one-way ANOVA was performed using GraphPad Instat 3.0 (San Diego, Calif.).

hTERT-RPE1 cells [3] = test: loss of cilia after microinjection of AurA proteins into ciliated hTERT-RPE1 cells; format: cell-based
Procedure: (§1) For microinjection, recombinant glutathione-S-transferase (GST), GST fused AurA mutants T288A and D274N) produced from BL21 (DE3) bacteria were purified using the MicroSpin GST Purification Module (Amersham Biotech.). Purified recombinant AurA was purchased from Upstate; this AurA was pre-activated based on incubation with ATP. […] To prepare lysates for Western blotting and IP, mammalian cells were disrupted by M-PER lysis buffer (Pierce) supplemented with EDTA-free protease inhibitor cocktail (Roche). Lysates used for IP were incubated overnight with antibody at 4° C., subsequently incubated for 2 hours with protein A/G-sepharose (Pierce), washed, and resolved by SDS-PAGE. Western blotting was performed using standard procedures and proteins visualized using the West-Pico system (Pierce). Antibodies used included mouse monoclonal antibody (mAb) anti-HEF1 2G9 (Pugacheva and Golemis, 2005), anti-α-tubulin mAb (Sigma), anti-AurA (BD Bioscience) for Western blotting, anti-AurA rabbit polyclonal (Cell Signaling) for IP, anti-Phospho-AurA/T288 (BioLegend), anti-Phospho-AurA/T288 (Cell Signaling), anti-HDAC6 rabbit polyclonal (Upstate; 1:5000), anti-HDAC2 rabbit polyclonal (Invitrogen) and mAb anti-β-actin (AC15, Sigma), anti-IFT88 and anti-IFT20. Secondary horseradish peroxidase (HRP)-conjugated antibodies were from Amersham Biotech.
Microinjections were performed on a Nikon TE300 Microscope (Nikon, Melville, N.Y.) that was equipped with an Eppendorf Transjector 5246 semi-automatic microinjector and micromanipulator (Eppendorf, Westbury, N.Y.). […] Proteins were pre-filtered through a 0.2-μm Milliopore membrane and mixed with Dextran Green488 (Molecular Probes) to mark injected cells. Injected cells were incubated at 37° C. before fixation. Typically, 150 cells were microinjected in each of 3 experiments.

acetylated tubulin = test: intracellular levels of acetylated tubulin (Western blot); format: cell-based; conditions: vs DMSO vehicle
Procedure: as §1

hTERT-RPE1 cells [4] = test: growth factor-induced disassembly of cilia in hTERT-RPE1 cells; format: cell-based; conditions: 10 ng/ml
Procedure: FIG. 4. Growth factor-induced disassembly of cilia in hTERT-RPE1 cells. A. Time course of disassembly of cilia in cells treated with EGF, PDGF, and TGF-β. […] B. Western blot indicating T288-phosphorylated and total AurA in cells treated with PDGF or EGF, at times indicated after treatment. C. Immunofluorescence depicting cilia (red, acetylated a α-tubulin) and phospho-AurA (green) staining at the basal body at 2 hours after stimulation with PDGF, EGF, or serum. Phosphorylated AurA is apparent in PDGF- and serum-treated cells, but not EGF-treated cells: further, many well-formed cilia are apparent in EGF-treated cells (marked with asterisks) in contrast to other conditions. Scale bar represents […].
hTERT-RPE1 cells were grown in DMEM with 10% fetal bovine serum (FBS). For analysis of ciliary disassembly, cells were plated at 30% confluence in plates containing glass cover slips, and starved for 48 hours (in Opti-MEM or regular DMEM, without added serum) to induce cilia formation, followed by treatments described hereinbelow. […] The remaining cells on plate were lysed, then either directly analyzed by Western blot analysis, or used for immunoprecipitation (IP)-kinase reaction to measure AurA activity.

[5] = molecular target: recombinant glutathione-S-transferase (GST)
[6] = molecular target: T1, in vitro translated and immunoprecipitated HDAC6, Q9UBN7
T1 chain: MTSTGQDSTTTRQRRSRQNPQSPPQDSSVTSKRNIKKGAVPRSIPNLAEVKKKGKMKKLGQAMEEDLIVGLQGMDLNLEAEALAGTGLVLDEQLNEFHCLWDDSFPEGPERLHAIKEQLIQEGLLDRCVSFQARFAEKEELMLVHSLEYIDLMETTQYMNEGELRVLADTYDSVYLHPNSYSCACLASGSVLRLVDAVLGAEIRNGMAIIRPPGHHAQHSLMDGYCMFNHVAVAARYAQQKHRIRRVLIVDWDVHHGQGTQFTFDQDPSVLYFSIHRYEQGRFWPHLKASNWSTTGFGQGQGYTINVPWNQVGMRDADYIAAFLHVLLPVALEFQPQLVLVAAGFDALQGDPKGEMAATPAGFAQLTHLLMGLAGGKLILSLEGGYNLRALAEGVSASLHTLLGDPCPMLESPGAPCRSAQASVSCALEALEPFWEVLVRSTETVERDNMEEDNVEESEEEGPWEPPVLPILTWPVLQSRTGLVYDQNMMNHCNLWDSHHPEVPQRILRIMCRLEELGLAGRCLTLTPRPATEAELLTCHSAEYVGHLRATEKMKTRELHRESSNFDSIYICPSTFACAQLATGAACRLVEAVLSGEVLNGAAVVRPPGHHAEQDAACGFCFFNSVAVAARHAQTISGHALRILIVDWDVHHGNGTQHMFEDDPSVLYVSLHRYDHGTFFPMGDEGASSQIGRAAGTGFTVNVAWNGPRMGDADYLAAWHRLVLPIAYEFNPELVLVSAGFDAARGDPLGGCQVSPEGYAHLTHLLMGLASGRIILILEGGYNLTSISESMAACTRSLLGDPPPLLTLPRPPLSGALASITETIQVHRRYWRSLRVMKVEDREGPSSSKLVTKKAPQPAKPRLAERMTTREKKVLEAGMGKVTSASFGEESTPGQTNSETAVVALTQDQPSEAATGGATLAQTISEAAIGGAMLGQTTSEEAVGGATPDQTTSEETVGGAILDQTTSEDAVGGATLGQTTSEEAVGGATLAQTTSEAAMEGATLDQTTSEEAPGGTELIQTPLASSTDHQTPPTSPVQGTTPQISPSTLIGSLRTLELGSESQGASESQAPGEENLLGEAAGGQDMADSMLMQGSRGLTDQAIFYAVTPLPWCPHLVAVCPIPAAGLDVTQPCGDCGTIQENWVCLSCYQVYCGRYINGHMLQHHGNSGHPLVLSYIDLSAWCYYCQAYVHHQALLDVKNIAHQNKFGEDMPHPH

[7] = 0.05 μM protein microinjected, low serum medium

Molecule: O=C(CCCCCCC(=O)Nc1ccc([C@H]2O[C@@H](CSc3nc(-c4ccccc4)c(-c4ccccc4)o3)C[C@@H](c3ccc(CO)cc3)O2)cc1)NO [tubacin]
- cell cycle profile at 2 h after serum stimulation (hTERT-RPE1 cells [1]; 2 h): neither tubacin treatment nor siRNA to HDAC6 influenced cell cycle profile
- cell cycle profile at the later time point after serum stimulation (hTERT-RPE1 cells [1]; later time point (18-24 h)): accumulation in G2
- serum-induced ciliary disassembly (hTERT-RPE1 cells [2]): completely blocked
- ability of microinjected AurA to disassemble cilia (hTERT-RPE1 cells [3]; cells pre-treated for 3 hours with tubacin before aAurA microinjection): substantially limited
- levels of acetylated tubulin in treated cells (acetylated tubulin): increased

Molecule: O=C(O)CCCCCCC(=O)Nc1ccc([C@H]2O[C@@H](CSc3nc(-c4ccccc4)c(-c4ccccc4)o3)C[C@@H](c3ccc(CO)cc3)O2)cc1 [niltubacin]
- serum-induced ciliary disassembly (hTERT-RPE1 cells [2]): no effect
- levels of acetylated tubulin in treated cells (acetylated tubulin): not

Molecule: PDGF
- ciliary disassembly response to growth factor (hTERT-RPE1 cells [4]): partial response

Molecule: CC(/C=C/C(=O)NO)=C\[C@@H](C)C(=O)c1ccc(N(C)C)cc1 [trichostatin A (TSA), trichostatin A]
- serum-induced ciliary disassembly (hTERT-RPE1 cells [2]): completely blocked
- levels of acetylated tubulin in treated cells (acetylated tubulin): increased

Molecule: COC(=O)[C@H](CCSC)NC(=O)c1ccc(NC[C@@H](N)CS)cc1-c1ccccc1 [FTI]
- serum-induced ciliary disassembly (hTERT-RPE1 cells [2]): do not inhibit

B1: recombinant activated AurA (Upstate) (protein)
chain: MDRSKENCISGPVKATAPVGGPKRVLVTQQFPCQNPLPVNSGQAQRVLCPSNSSQRIPLQAQKLVSSHKPVQNQKQKQLQATSVPHPVSRPLNNTQKSKQPLPSAPENNPEEELASKQKNEESKKRQWALEDFEIGRPLGKGKFGNVYLAREKQSKFILALKVLFKAQLEKAGVEHQLRREVEIQSHLRHPNILRLYGYFHDATRVYLILEYAPLGTVYRELQKLSKFDEQRTATYITELANALSYCHSKRVIHRDIKPENLLLGSAGELKIADFGWSVHAPSSRRTTLCGTLDYLPPEMIEGRMHDEKVDLWSLGVLCYEFLVGKPPFEANTYQETYKRISRVEFTFPDFVTEGARDLISRLLKHNPSQRPMLREVLEHPWITANSSKPSNCQNKESASKQS
- in vitro kinase assay (32P autoradiography) [5]: AurA phosphorylated HDAC6, but not HDAC2 or the GST negative control
- in vitro tubulin deacetylation assay [6]: AurA-phosphorylated HDAC6 was much more potent than unphosphorylated HDAC6 in deacetylating α-tubulin
- injected cells lacking cilia (hTERT-RPE1 cells [3]; 0.05 μM protein microinjected, low serum medium, as soon as cells could be fixed): more than 80%

B2: D274N: D274N AurA, an inactive mutant (protein, UniProt O14965 1-403, looked up, variant D274N)
Aurora kinase A: B1 chain with D274N
- loss of cilia after microinjection (hTERT-RPE1 cells [3]; [7]): did not induce loss of cilia

B3: T288A: T288A AurA, a hypomorphic mutant (protein, UniProt O14965 1-403, looked up, variant T288A)
Aurora kinase A: B1 chain with T288A
- loss of cilia after microinjection (hTERT-RPE1 cells [3]; [7]): eventual partial loss of cilia
